Assay results: US9375496B2, “Halogenated compounds for cancer imaging and treatment and methods for their use” (The University of British Columbia, priority 2013, dated 2016)

How the values were obtained:
Format in all cases: cell-based
[1] = tested on: DU145 cells; experiment: DU145 cell viability, alamarBlue Cell Viability Assay; conditions: day 3, at concentrations that reduced LNCaP proliferation
Excerpt: Effects of 8d (also referred to as I-EPI-002) on androgen-dependent proliferation of LNCaP cells treated with R1881 were compared with PC3 and DU145 cell viability by alamarBlue Cell Viability Assay (FIG. 16).

[2] = molecular target: T1, glucocorticoid receptor (GR) (Homo sapiens, UniProt P04150); experiment: GRE-luciferase reporter assay in LNCaP cells cotransfected with full-length human GR; conditions: 1.9 μM 8d, 10 nM dexamethasone, 48 h, LNCaP cells (FIG. 2C)
T1 construct: expression plasmids for full-length human GR; expressed in transfected cells; host or cells: LNCaP
T1 sequence (P04150 1-777): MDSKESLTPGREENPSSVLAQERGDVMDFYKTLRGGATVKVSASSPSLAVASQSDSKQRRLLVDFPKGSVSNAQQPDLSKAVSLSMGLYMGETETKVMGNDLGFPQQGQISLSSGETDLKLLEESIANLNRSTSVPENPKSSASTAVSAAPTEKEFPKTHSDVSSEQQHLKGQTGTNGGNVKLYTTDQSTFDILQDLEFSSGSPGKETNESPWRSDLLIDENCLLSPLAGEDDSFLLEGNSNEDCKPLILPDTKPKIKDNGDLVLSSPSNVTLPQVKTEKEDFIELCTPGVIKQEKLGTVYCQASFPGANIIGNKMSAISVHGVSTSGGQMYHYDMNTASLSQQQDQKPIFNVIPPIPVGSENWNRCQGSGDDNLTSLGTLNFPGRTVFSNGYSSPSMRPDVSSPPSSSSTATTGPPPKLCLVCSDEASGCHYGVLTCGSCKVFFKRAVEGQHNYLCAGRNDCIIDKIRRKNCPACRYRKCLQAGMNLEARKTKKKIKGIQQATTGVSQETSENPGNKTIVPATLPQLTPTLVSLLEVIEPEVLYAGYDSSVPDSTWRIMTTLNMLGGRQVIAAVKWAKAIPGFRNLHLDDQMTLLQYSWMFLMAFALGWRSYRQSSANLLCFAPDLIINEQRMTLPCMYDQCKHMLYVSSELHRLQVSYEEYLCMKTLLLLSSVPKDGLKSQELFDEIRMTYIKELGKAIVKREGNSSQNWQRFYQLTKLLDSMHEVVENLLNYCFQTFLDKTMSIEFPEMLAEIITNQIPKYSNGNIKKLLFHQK
Protocol: To assess specificity for the AR, parallel experiments were performed in LNCaP cells with endogenous AR and ectopic expression of other closely related human hormone receptors such as the progesterone receptor-beta (PRβ), glucocorticoid receptor (GR) and estrogen receptor-α (ER).

[3] = molecular target: T2, AR (Homo sapiens, UniProt P10275, T878A); experiment: PSA(6.1 kb)-luciferase reporter assay in LNCaP cells (androgen-induced AR transcriptional activity)
T2 construct: LNCaP cells with endogenous AR; endogenous in cells; host or cells: LNCaP
T2 sequence (P10275 1-920 T878A): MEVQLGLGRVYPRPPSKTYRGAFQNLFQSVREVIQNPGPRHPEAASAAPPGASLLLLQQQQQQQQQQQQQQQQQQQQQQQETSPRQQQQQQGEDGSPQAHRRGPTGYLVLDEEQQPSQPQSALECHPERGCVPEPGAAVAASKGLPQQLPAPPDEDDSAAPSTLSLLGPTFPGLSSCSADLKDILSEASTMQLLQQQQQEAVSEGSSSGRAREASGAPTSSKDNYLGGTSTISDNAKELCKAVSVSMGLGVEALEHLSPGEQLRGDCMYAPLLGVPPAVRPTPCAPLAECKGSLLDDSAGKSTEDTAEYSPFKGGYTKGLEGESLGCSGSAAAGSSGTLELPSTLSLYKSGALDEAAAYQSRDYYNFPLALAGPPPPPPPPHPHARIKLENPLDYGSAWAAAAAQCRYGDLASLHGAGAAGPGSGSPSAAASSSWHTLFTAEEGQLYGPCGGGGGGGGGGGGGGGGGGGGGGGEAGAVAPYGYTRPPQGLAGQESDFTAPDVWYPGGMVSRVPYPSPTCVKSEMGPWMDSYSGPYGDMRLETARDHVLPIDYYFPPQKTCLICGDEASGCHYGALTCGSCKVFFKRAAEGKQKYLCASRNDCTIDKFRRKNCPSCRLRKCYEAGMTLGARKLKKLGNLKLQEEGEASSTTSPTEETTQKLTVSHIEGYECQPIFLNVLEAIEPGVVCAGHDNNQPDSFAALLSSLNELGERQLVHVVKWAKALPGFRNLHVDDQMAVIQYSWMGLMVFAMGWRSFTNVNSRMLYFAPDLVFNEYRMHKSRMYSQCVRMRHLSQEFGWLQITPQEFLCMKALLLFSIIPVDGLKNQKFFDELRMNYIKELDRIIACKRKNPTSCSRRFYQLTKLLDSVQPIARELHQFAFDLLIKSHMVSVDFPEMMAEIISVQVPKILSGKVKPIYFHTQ
Protocol: The PSA-luciferase (6.1 kb) reporter contains functional AREs to which AR binds in response to androgen to induce luciferase activity. LNCaP cells were transfected with the PSA(6.1 kb)-luciferase reporter for 24 h, and then treated with indicated concentration of 8d (also referred as EPI-iodide or iodinated EPI) with synthetic androgen, R1881 (1 nM) for 24 h. After 24 h of incubation with R1881, the cells were harvested, and relative luciferase activities were determined (FIG. 1A). To determine the IC50, treatments were normalized to the predicted maximal activity induction (in the absence of test compounds, vehicle only) (FIG. 1B).
To measure effect on AR, after the LNCaP cells were transfected with the PSA(6.1 kb)-luciferase reporter for 24 h, they were then treated with DMSO, 5 μM MDV3100, 25 μM Z (also referred to as EPI-002 or EPI), or 1.9 μM 8d with or without 1 nM R1881 for 24 h (FIG. 2A).
LNCaP cells were transiently transfected with PSA (6.1 kb)-luciferase for 24 h prior to pre-treatment with compounds of the invention (e.g., compounds 9d, 10d, 11d) ranging in concentration from 62.5 ng/ml to 1.5 ug/ml for 1 hour before the addition of vehicle, or synthetic androgen, R1881 (1 nM) to induce luciferase production. After 24 h of incubation with R1881, the cells were harvested, and relative luciferase activities were determined. To determine the IC50, treatments were normalized to the predicted maximal activity induction (in the absence of test compounds, vehicle only) (FIG. 1B).

- GR activity (GRE-luciferase) [2]: not inhibited
- androgen-induced PSA luciferase activity ([3]; 1.9 μM 8d, 1 nM R1881, 24 h, LNCaP cells (FIG. 2A)): strongly inhibited
- IC50 ([3]; LNCaP cells, PSA(6.1 kb)-luciferase, R1881 1 nM 24 h, representative experiment, read-out: IC50 for inhibition of AR transcriptional activity): 1.17 ± 0.22 µM
SMILES: CC(C)(c1ccc(OC[C@H](O)CO)cc1)c1ccc(OC[C@H](O)CCl)c(I)c1 [Compound 8d, (R)-3-(4-(2-(4-((S)-3-chloro-2-hydroxypropoxy)-3-iodophenyl)propan-2-yl)phenoxy)propane-1,2-diol]
- viability of DU145 cells [1]: no effect
